Assay [1] deals with E. coli BL21 (DE3)/pET30a-NDM-1. Nature of the assay: MIC of β-lactam antibiotics by E-test method. Type of assay: cell-based. As to conditions: Escherichia coli, 24 h. How it is done:
(§1) E. coli BL21(DE3) cells were transformed with the pET30a plasmid encoding the NDM-1 gene (Gen Bank ID: HQ162469). E. coli BL21(DE3)/pET30a-NDM-1 was grown overnight at 37°C in liquid Luria-Bertani (LB) broth containing 50μg/ml kanamycin, 100μg/ml ampicillin and 50μM Zn(NO3)2 to select for E. coli clones containing the plasmid of pET30a-NDM-1. Two strains, E. coli BL21 (DE3)/pET30a-NDM-1 overexpressing NDM-1 and P. aeruginosa isolated from Renmin Hospital of Wuhan University with blaNDM-1 confirmed by PCR (data not shown), were cultured overnight, respectively. The cultures were diluted 1:100, grown to an optical density at 600 nm (OD600) of ~0.6, and spread onto LB agar. After naturally drying for five minutes, E-test strips (AB Biodisk, Solna, Sweden) were applied to the ~150mm Mueller-Hinton (MH) (Tianhe Microbial Agents, Hangzhou, China) agar plates and grown for 24h at 35°C to 37°C without further intervention. The antibiotic strips respectively containing penicillin G, ampicillin, cephalothin, cefuroxime, ceftazidime, cefepime, meropenem, ertapenem, aztreonam were used for testing susceptibility. The results were obtained in accordance with the Clinical and Laboratory Standards Institute (CLSI) guidelines.

Assay [2] concerns P. aeruginosa with blaNDM-1. The experiment in a line: MIC of β-lactam antibiotics by E-test method. As to conditions: Pseudomonas aeruginosa, 24 h. Type of assay: cell-based. On the procedure:
as §1

The test system of assay [3] is E. coli BL21 (DE3)/pET30a. The experiment in a line: MIC of β-lactam antibiotics by E-test method. Conditions: Escherichia coli, 24 h. Type of assay: cell-based.
Another assay deals with E. coli BL21 (DE3). The experiment in a line: MIC of β-lactam antibiotics by E-test method. Type of assay: cell-based. Conditions: Escherichia coli, 24 h.
For assay [4], the system named is E. coli BL21 (DE3)/pET30a-NDM-1. The experiment in a line: Synergistic antibacterial effect of ertapenem combined with oligopeptide (twofold broth dilution). Type of assay: cell-based. As to conditions: ertapenem alone at 256 μg/ml; NDM-1 strain. On the procedure:
E. coli BL21 (DE3)/pET30a-NDM-1 overexpressing NDM-1 and a clinical isolate of P. aeruginosa with blaNDM-1 were also utilized to evaluate the bioactivities of oligopeptides, which reversed NDM-1-mediated β-lactam antibiotics resistance. Determination of antibacterial synergy was performed using a serial twofold dilutions method recommended by CLSI guidelines. E. coli BL21 (DE3)/pET30a was used as a control in the experiment. Minimum inhibitory concentrations (MICs) of the agents were determined by the twofold serial dilution with Mueller-Hinton (MH) broth (Shifeng Biotech Corp., Shanghai, China). For this assay, E. coli BL21 (DE3)/pET30a-NDM-1 was grown overnight in MH broth media containing 50μg/ml kanamycin at 37°C [23]. β-lactam antibiotic and oligopeptide at various concentrations were added to 120μL broth media of a 1:20 dilution of the overnight culture, resulting the final volume of 150μL [24]. The growth of bacterial cultures was set up in 96-well microplates, which incubated at 37°C with constant shaking continuously for 18 h and a reading at 630 nm was taken to determine the MICs of synergistic effect. The lowest antibiotic concentration preventing visible growth was deemed to be the MIC value. […] Every data of reading was repeated thrice, and each experiment mentioned above was performed at least two times.
A general note: In broth dilution the organism is exposed to a series of concentrations in liquid medium.

A further assay concerns the target full-length NDM-1 (Klebsiella pneumoniae, UniProt C7C422). The experiment in a line: biochemical. Conditions: IC50 (Mean±SD), full-length NDM-1, ertapenem 80 μM as substrate, 15 min pre-incubation at 35°C. How it is done:
The full-length NDM-1 enzyme was expressed and purified by a method from a previously published procedure. All the oligopeptides were synthesized by GL Biochem. (Shanghai), Ltd., China, with a purity of >95%. The target of NDM-1 enzyme was pre-incubated with the desired oligopeptide for 15min at 35°C before the assay by adding the inhibitor. The oligopeptides used for testing were dissolved in 10mM phosphate-buffered saline (PBS) buffer (pH7.0), containing dimethyl sulfoxide (DMSO) with the final concentration of 0.25% (V/V). […] Ertapenem (80μM) was used as report substrate. The hydrolysis of the substrate by the NDM-1 was detected by monitoring the variation in absorbance resulting from the opening of the β-lactam ring. All the determinations were made on a spectrophotometer (UV-1750, Shimadzu, Japan) connected to a personal computer. The enzymatic reactions were carried out in a total volume of 100μL. The reaction buffer contained 20mM HEPES buffer, pH7.3, 0.25M NaCl, 1mM 1,4-Dithio-DL-threitol (DTT) (Beinglay Biotech Corp., Wuhan, China), 50μM Zn(NO3)2 and 10mg/ml bovine serum albumin (BSA) preventing NDM-1 denaturation. The ultraviolet (UV) absorbance detector was set at 300 nm, a λ max for ertapenem. The IC50 values were determined more than three times by fitting the concentration dependence of residual enzyme activity to the nonlinear regression (curve fit) using GraphPad Prism (GraphPad Software, La Jolla, America).

We go through 20 compounds from article PMC5441612, “Oligopeptides as full-length New Delhi metallo-β-lactamase-1 (NDM-1) inhibitors” (PLoS ONE, 2017).

Residues, ends and D or L forms follow the SMILES beside them.

Chain of full-length NDM-1 (C7C422 29-270 limits assumed): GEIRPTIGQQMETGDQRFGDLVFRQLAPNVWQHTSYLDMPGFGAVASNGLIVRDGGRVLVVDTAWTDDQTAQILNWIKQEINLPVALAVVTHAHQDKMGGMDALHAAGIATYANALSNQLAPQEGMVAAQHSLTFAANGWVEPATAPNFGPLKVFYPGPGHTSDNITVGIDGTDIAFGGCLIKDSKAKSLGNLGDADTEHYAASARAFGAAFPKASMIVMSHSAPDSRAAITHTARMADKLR

Regarding `CC1(C)S[C@@H]2[C@H](NC(=O)[C@H](N)c3ccccc3)C(=O)N2[C@H]1C(=O)O` [Ampicillin], the MIC in assay [1] was greater than 256 µg/mL; in assay [2], greater than 256 µg/mL; in assay [3], 8 µg/mL; in the assay on E. coli BL21 (DE3), 6 µg/mL.

For `C[C@H]1[C@H](NC(=O)/C(=N\OC(C)(C)C(=O)O)c2csc(N)n2)C(=O)N1S(=O)(=O)O` [Aztreonam], the MIC was greater than 256 µg/mL in assay [1], greater than 256 µg/mL in assay [2], 0.064 µg/mL in assay [3] and 0.047 µg/mL in the assay with E. coli BL21 (DE3).

As for `CO/N=C(\C(=O)N[C@@H]1C(=O)N2C(C(=O)[O-])=C(C[N+]3(C)CCCC3)CS[C@H]12)c1csc(N)n1` [Cefepime], the minimum inhibitory concentration (MIC) in assay [1] was greater than 64 µg/mL; in assay [2], greater than 64 µg/mL; in assay [3] it was 0.08 µg/mL; in the assay with E. coli BL21 (DE3), 0.08 µg/mL.

Take `CO/N=C(\C(=O)N[C@@H]1C(=O)N2C(C(=O)O)=C(COC(C)=O)CS[C@H]12)c1csc(N)n1` [Cefotaxime]: the MIC in assay [1] is greater than 256 µg/mL; in assay [2], greater than 256 µg/mL; in assay [3], 0.25 µg/mL; in the assay on E. coli BL21 (DE3), 0.125 µg/mL.

Regarding `CC(C)(O/N=C(\C(=O)N[C@@H]1C(=O)N2C(C(=O)[O-])=C(C[n+]3ccccc3)CS[C@H]12)c1csc(N)n1)C(=O)O` [Ceftazidime], the MIC in assay [1] is greater than 256 µg/mL; in assay [2] it was greater than 256 µg/mL; in assay [3], 0.25 µg/mL; in the assay with E. coli BL21 (DE3), 0.38 µg/mL.

In the case of `CO/N=C(\C(=O)N[C@@H]1C(=O)N2C(C(=O)O)=C(COC(N)=O)CS[C@H]12)c1ccco1` [Cefuroxime], the MIC is greater than 256 µg/mL in assay [1], 256 µg/mL in assay [2], 3 µg/mL in assay [3] and 2 µg/mL in the assay with E. coli BL21 (DE3).

On to `CC(=O)OCC1=C(C(=O)O)N2C(=O)[C@@H](NC(=O)Cc3cccs3)[C@H]2SC1` [Cephalothin], for which the MIC in assay [1] is greater than 256 µg/mL; in assay [2], greater than 256 µg/mL; in assay [3], 4 µg/mL; in the assay on E. coli BL21 (DE3) it was 6 µg/mL.

As for `C[C@@H](O)[C@H]1C(=O)N2C(C(=O)O)=C(S[C@@H]3CN[C@H](C(=O)Nc4cccc(C(=O)O)c4)C3)[C@H](C)[C@H]12` [Ertapenem], the MIC in assay [1] was greater than 32 µg/mL; in assay [2], greater than 32 µg/mL; in assay [3], 0.094 µg/mL; with E. coli BL21 (DE3), 0.094 µg/mL. Further, the “growth in broth media containing ertapenem” value in assay [4] was “still able to grow”.

Turning to `C[C@@H](O)[C@H]1C(=O)N2C(C(=O)O)=C(S[C@@H]3CN[C@H](C(=O)N(C)C)C3)[C@H](C)[C@H]12` [Meropenem], the MIC was greater than 32 µg/mL in assay [1], greater than 32 µg/mL in assay [2], 0.047 µg/mL in assay [3] and 0.032 µg/mL in the assay on E. coli BL21 (DE3).

`N[C@@H](CS)C(=O)N[C@@H](Cc1c[nH]cn1)C(=O)O` [Oligopeptide 1, Cys-His] (H-Cys-His-OH) gave an IC50 against full-length NDM-1 of 182 ± 14 µM.

`N[C@@H](CS)C(=O)N[C@@H](Cc1ccccc1)C(=O)O` [Oligopeptide 2, Cys-Phe] (H-Cys-Phe-OH) yielded an IC50 at full-length NDM-1 of 113 ± 9 µM.

For `N[C@@H](CS)C(=O)N[C@@H](Cc1ccc(O)cc1)C(=O)O` [Oligopeptide 3, Cys-Tyr] (H-Cys-Tyr-OH), the concentration for half-maximal inhibition (IC50) at full-length NDM-1 was greater than 300 µM.

On full-length NDM-1, `CC(C)[C@H](NC(=O)[C@@H](N)CS)C(=O)O` [Oligopeptide 4, Cys-Val] (H-Cys-Val-OH) had an IC50 of 235 ± 18 µM.

Consider `N[C@@H](CS)C(=O)N[C@@H](CC(=O)O)C(=O)O` [Oligopeptide 5, Cys-Asp] (H-Cys-Asp-OH), for which, on full-length NDM-1, the IC50 turned out to be 68 ± 5 µM.

At full-length NDM-1, `N[C@@H](CS)C(=O)NCC(=O)N[C@@H](Cc1c[nH]cn1)C(=O)O` [Oligopeptide 6, Cys-Gly-His] (H-Cys-Gly-His-OH) came in with an IC50 of 263 ± 21 µM.

At full-length NDM-1, `N[C@@H](CS)C(=O)NCC(=O)N[C@@H](Cc1ccccc1)C(=O)O` [Oligopeptide 7, Cys-Gly-Phe] (H-Cys-Gly-Phe-OH) had an IC50 of 144 ± 13 µM.

`N[C@@H](CS)C(=O)NCC(=O)N[C@@H](Cc1ccc(O)cc1)C(=O)O` [Oligopeptide 8, Cys-Gly-Tyr] (H-Cys-Gly-Tyr-OH): the IC50 at full-length NDM-1 was greater than 300 µM.

Regarding `CC(C)[C@H](NC(=O)CNC(=O)[C@@H](N)CS)C(=O)O` [Oligopeptide 9, Cys-Gly-Val] (H-Cys-Gly-Val-OH), at full-length NDM-1, inhibition was half-maximal at 249 ± 21 µM (IC50).

For the compound `N[C@@H](CS)C(=O)NCC(=O)N[C@@H](CC(=O)O)C(=O)O` [Oligopeptide 10, Cys-Gly-Asp] (H-Cys-Gly-Asp-OH), the IC50 against full-length NDM-1 is greater than 300 µM.

As for `CC1(C)S[C@@H]2[C@H](NC(=O)Cc3ccccc3)C(=O)N2[C@H]1C(=O)O` [Penicillin G], the MIC was greater than 32 µg/mL in assay [1], greater than 32 µg/mL in assay [2], 12 µg/mL in assay [3] and 12 µg/mL with E. coli BL21 (DE3).

As a reminder, the MIC is the lowest concentration found to suppress growth. A word on the IC50: it is the point on the concentration scale where inhibition reaches its midpoint.
